According to patent US3984555A, “Therapeutic piperazinylalkyl-quinazolone-(4)-derivatives” (Byk Gulden Lomberg Chemische Fabrik Gesellschaft mit …, priority 1970, dated 1976):
Read-outs that look alike come from different tables or passages of the source.

Assays:
[1] = test system: defence reaction after the thermal stimulation of the tail of the mouse; assay: Analgesic effect on the mouse: delay in defence reaction after thermal stimulation of the tail (Table IV); type: in vivo; conditions: po, read-out: Delay in the defence reaction after the thermal stimulation of the tail of the mouse by 25% by mg/kg per os
Description: From Table IV below one can see the analgesic action, measured in terms of the delayed reaction during the thermal irritation of the mouse tail. The analgesically effective doses are also below those which reduce the motor behaviour, that is to say the normal movement processes (cf. Table III).
Analgesic effect on the mouse
Delay in the defence reaction after
the thermal stimulation of the tail

mouse [2] = assay: Mice falling from a rotating bar (Table III, a); type: in vivo; conditions: ip, read-out: a PD50 mg/kg i.p.
Description: The central damping actions of the piperazinyl quinazolones on the mouse can be seen from Table III.
a = dose at which 50% of the mice fall from a rotating bar;

mouse [3] = assay: Inhibition of spontaneous motility, sedation, muscular relaxation, loss of grip on horizontal wire mesh in mice (Table III, b); type: in vivo; conditions: po, dose at which an average of 50% of the mice display symptoms, read-out: b SD50 mg/kg oral
[4] = test system: running activity of mice pre-treated with α-amphetamine sulphate; assay: Inhibition of running activity of mice pre-treated with α-amphetamine sulphate (Table III, c); type: in vivo; conditions: Mus musculus, ip, 3 h, 5 mg/kg α-amphetamine sulphate, 180 minutes; for inhibition in vivo at 12 mg/kg: 12mg/kg i/p, read-out: c % inhibition of motility in the treadwheel by 12mg/kg i/p; for inhibition in vivo at 25 mg/kg: 25mg/kg i/p, read-out: c % inhibition of motility in the treadwheel by 25mg/kg i/p
[5] = test system: duration of sleep of mice under hexobarbital; assay: Prolongation of hexobarbital sleep in mice (Table III, d); type: in vivo; conditions: Mus musculus, ip; 15 mg/kg i.p.; 75 mg/kg hexobarbital; read-out: d % prolongation of sleep under hexebarbital by 15 mg/kg i.p.
Procedure: d = percentage prolongation of the duration of sleep of mice which had received 75 mg/kg. of hexobarbital, reckoned on the duration of the sleep of control animals.

[6] = test system: blood pressure and cardiac frequency of the narcotised rat; assay: Influence on the blood pressure and the cardiac frequency of the narcotised rat (Table II); type: in vivo; conditions: iv, i/v, read-out: Blood pressure lowered by 30% by mg/kg i/v
Description: Influence on the blood pressure and the cardiac frequency of the
blood pressure and the cardiac frequency of the narcosed rate and also on […]

[7] = test system: hypertensive effect of 1-adrenalin; assay: 50% inhibition of hypertensive effect of 0.001 mg/kg i/v 1-adrenalin on the despinalised rat (Table II); type: in vivo; conditions: iv, read-out: 50% inhibition of hypertensive effect after i/v dose of Adrenalin by mg/kg i/v
Procedure: (§1) also on the hypertensive effect of 0.001 mg/kg i/v 1-adrenalin and
(§2) blood pressure and the cardiac frequency of the narcosed rate and also on
(§3) the hypertensive effect of 0.001 mg/kg i.v. 1-adrenaline and noradrenaline
(§4) on the despinalised rat. The mean lethal doses for the mouse are also

[8] = test system: hypertensive effect of noradrenalin; assay: 50% inhibition of hypertensive effect of 0.001 mg/kg i/v noradrenalin on the despinalised rat (Table II); type: in vivo; conditions: iv, read-out: 50% inhibition of hypertensive effect after i/v dose of Noradrenalin by mg/kg i/v
Procedure: as §1, §2, §3, §4

[9] = LD50 (mean lethal dose) on the mouse (Table II); conditions: in vivo
Description: as §4

[10] = test system: blood pressure and cardiac frequency of the narcotised cat; assay: Influence on the blood pressure and cardiac frequency of the narcotised cat (Table I); type: in vivo; parameters: unit not given here; conditions: for Blood pressure lowered by 30% by: dose lowering blood pressure by 30%; for Blood pressure lowered by 50% by: dose lowering blood pressure by 50%
Description: (§5) Influence on the blood pressure and cardiac frequency and also
(§6) on the carotid sinus reflex of the narcotised cat
(§7) Table I provides a general summary of the influence of different piperazinylquinazolones on the blood pressure, the cardiac frequency and the carotid sinus reflex of the narcotised cat.

carotid sinus reflex = assay: Inhibition of the carotid sinus reflex of the narcotised cat (Table I); type: in vivo; parameters: unit not given here; conditions: for Inhibition of the carotid sinus reflex by 30% by: dose for 30% inhibition; for Inhibition of the carotid sinus reflex by 50% by: dose for 50% inhibition
Description: as §5, §6, §7
The inhibition of the carotid sinus reflex brought about by the piperazinyl quinazolones occurs at lower doses than the spontaneous lowering of the blood pressure in the cat.

[11] = dose at which 50% of the mice fall from a rotating bar

SMILES | ED25 ([1]; mouse, per os, 25% delay) [mg/kg] | ED50 (mouse [2]) [mg/kg] | ED50 (mouse [3]) [mg/kg] | inhibition in vivo at 12 mg/kg [4] [%] | inhibition in vivo at 25 mg/kg [4] [%] | change in vivo at 15 mg/kg [5] [%] | ED30 [6] [mg/kg] | ED50 [7] [mg/kg] | ED50 [8] [mg/kg] | LD50 [9] [mg/kg] | Blood pressure lowered by 30% by [10] | Blood pressure lowered by 50% by [10] | Inhibition of the carotid sinus reflex by 30% by (carotid sinus reflex) | Inhibition of the carotid sinus reflex by 50% by (carotid sinus reflex) | ED50 (mouse [2]; [11]) [mg/kg] | ED25 ([1]; Mus musculus) [mg/kg]
Cc1c(N(C)C)c(=O)n(-c2ccccc2)n1C [Aminophenazone, 4-dimethylamino-1-phenyl-2,3-dimethylpyrazolone-5, reference compound] | 80 |  |  |  |  |  |  |  |  |  |  |  |  |  |  | 
CNC1=Nc2ccc(Cl)cc2C(c2ccccc2)=[N+]([O-])C1 [Chlordiazepoxide, chlorodiazepoxide, reference compound] |  | 38 | 8 | 15 | 19 | 324 |  |  |  |  |  |  |  |  |  | 
COc1cc2nc(CCN3CCN(c4ccccc4)CC3)[nH]c(=O)c2cc1OC [Example 1, 2-(2-(1-phenylpiperazinyl-4)ethyl)-6,7-dimethoxy-4(3H)-quinazolone] | 1.5 | 33 | 1000 | 15 | 55 | 64 | 0.3 | 0.23 | 5 | 70 |  |  |  |  |  | 
COc1cc2nc(CCN3CCN(c4ccccc4C)CC3)[nH]c(=O)c2cc1OC [Example 2, 2-(2-(1-(2-tolyl)-piperazinyl-4)ethyl)-6,7-dimethoxy-4(3H)-quinazolone] | 1 | 35 | 140 | 11 | 10 | 121 | 0.65 | 0.042 | 1.4 | 70 | 0.029 | > 1.6 | < 0.01 | 0.02 |  | 
COc1cc2nc(CCN3CCN(c4cccc(C)c4)CC3)[nH]c(=O)c2cc1OC [Example 3, 2-(2-(1-(3-tolyl)piperazinyl-4)ethyl)-6,7-dimethoxy-4(3H)-quinazolone] | 2 | 24 | 60 | 13 | 41 | 69 | 0.32 | 0.35 | 5 | 200 |  |  |  |  |  | 
COc1cc2nc(CCN3CCN(c4ccc(C)cc4)CC3)[nH]c(=O)c2cc1OC [Example 4] | 3 | 23 | 70 | 51 | 65 | 125 | 0.65 |  |  | 100 |  |  |  |  |  | 
COc1cc2nc(CCN3CCN(c4cccc(C(F)(F)F)c4)CC3)[nH]c(=O)c2cc1OC [Example 5, 2-(2-(1-(3-trifluoromethylphenyl)piperazinyl-4)ethyl)-6,7-dimethoxy-4(3H)-quinazolone] | < 1 |  |  |  |  |  |  |  |  |  |  |  |  |  |  | 
COc1cc2nc(CCN3CCN(c4ccccc4OC)CC3)n(C)c(=O)c2cc1OC [Example 8] |  |  |  |  |  |  | 0.12 | 0.035 |  | 350 |  |  |  |  |  | 
CCOc1ccccc1N1CCN(CCc2nc3cc(OC)c(OC)cc3c(=O)[nH]2)CC1 [Example 10, 2-(2-(1-(2-ethoxyphenyl)piperazinyl-4)ethyl)-6,7-dimethoxy-4(3H)-quinazolone] | 2 |  |  |  |  |  | 0.4 | 0.0085 | 1.8 | 300 | 0.03 | 1.4 | < 0.02 | 0.03 |  | 
COc1cc2nc(CCN3CCN(c4ccccc4Cl)CC3)[nH]c(=O)c2cc1OC [Example 11, 2-(2-(1-(2-chlorophenyl)piperazinyl-4)ethyl)-6,7-dimethoxy-4(2H)-quinazolone] | 4 | 53 | 110 | 18 | 32 | 87 | 0.1 | 0.048 | > 2.5 | 200 | 0.04 | > 1.6 | 0.017 | 0.04 |  | 
COc1cc2nc(CCN3CCN(c4cccc(Cl)c4)CC3)[nH]c(=O)c2cc1OC [Example 12, 2-(2-(1-(3-chlorophenyl)piperazinyl-4)ethyl)-6,7-dimethoxy-4(3H)-quinazolone] | 1.5 |  | 500 | 0 | 19 | 78 |  |  |  |  |  |  |  |  | 34 | 
COc1cc2nc(CCN3CCN(c4ccc(Cl)cc4)CC3)[nH]c(=O)c2cc1OC [Example 13, 2-(2-(1-(4-chlorophenyl)piperazinyl-4)ethyl)-6,7-dimethoxy-4(3H)-quinazolone] | 2 |  | 200 | 15 | 15 | 44 |  |  |  |  |  |  |  |  | 46 | 
COc1cc2nc(CCN3CCN(c4cccc(F)c4)CC3)[nH]c(=O)c2cc1OC [Example 15, 2-(2-(1-(3-fluorophenyl)piperazinyl-4)ethyl)-6,7-dimethoxy-4(3H)-quinazolone] | 1 |  |  |  |  |  | 0.2 | 0.32 | 4.3 | 200 |  |  |  |  |  | 
COc1cc2nc(CCN3CCN(c4ccc(F)cc4)CC3)[nH]c(=O)c2cc1OC [Example 16, 2-(2-(1(4-fluorophenyl)piperazinyl-4)ethyl)-6,7-dimethoxy-4(3H)-quinazolone] | 2.5 | 14 | 65 | 10 | 49 | 103 | 0.6 | 0.57 | 4 | 300 |  |  |  |  |  | 
COc1ccc(N2CCN(CCc3nc4cc(OC)c(OC)cc4c(=O)[nH]3)CC2)cc1 [Example 17, 2-(2-(1-(4-methoxyphenyl)piperazinyl-4)ethyl)-6,7-dimethoxy-4(3H)-quinazolone] | 2 |  |  |  |  |  |  |  |  |  | 4.5 | > 1.5 |  |  |  | 
COc1cc2nc(CN3CCN(c4ccccc4OC)CC3)[nH]c(=O)c2cc1OC [Example 18, 2-(1-(2-methoxyphenyl)piperazinyl-4)methyl-6,7-dimethoxy-4(3H)-quinazolone] | 8 |  | 1000 |  | 12 | > 15 |  |  |  |  |  |  |  |  |  | 
COc1cc2nc(CCCN3CCN(c4ccccc4OC)CC3)[nH]c(=O)c2cc1OC [Example 20, 2-(3-(1-(2-methoxy-phenyl)-piperazinyl-4)-n-propyl)-6,7-dimethoxy-4(3H)-quinazolone] | 2 |  |  |  |  |  | 0.65 | 0.05 | 1.15 | 300 |  |  |  |  |  | 
CCCC(C)(COC(N)=O)COC(N)=O [Meprobamate, reference compound] |  | 95 | 300 | 11 | 28 | 18 |  |  |  |  |  |  |  |  |  | 
CN1CC[C@]23c4c5ccc(O)c4O[C@H]2[C@@H](O)C=C[C@H]3[C@H]1C5.Cl [Morphine hydrochloride, morphine hydrochloride, reference compound] |  |  |  |  |  |  |  |  |  |  |  |  |  |  |  | 2
Cc1ccc(N(CC2=NCCN2)c2cccc(O)c2)cc1 [Phentolamine, phentolamine, reference compound] |  |  |  |  |  |  | 0.63 | 0.047 | 0.18 | 200 | 0.1 | 0.7 | 0.1 | 0.5 |  | 
